From ChEMBL document CHEMBL3044783, “Effects of pyrrolizidine alkaloids on the performance of plant-parasitic and free-living nematodes” (Pest Manag Sci, 2009)
Converted amounts (≈) assume the structure as drawn. The source made the active and inactive calls. No cut-off for these calls is given here.

How the values were obtained:
[1] = system: Rhabditis sp.; assay: Repellent activity against juvenile stage of Rhabditis sp. at 0.1 mg/mL after 20 hr by stereomicroscopic analysis (reference value: 48%); format: functional
[2] = system: Rhabditis sp.; assay: Repellent activity against juvenile stage of Rhabditis sp. at 1 mg/mL after 20 hr by stereomicroscopic analysis (reference value: 48%); format: functional
[3] = system: Phasmarhabditis hermaphrodita; assay: Nematicidal activity against juvenile stage of Phasmarhabditis hermaphrodita of assessed as inhibition of mobility incubated for 168 hr followed by compound wash out measured after 24 hr; format: functional; settings: Pellioditis hermaphrodita
[4] = system: Pratylenchus penetrans; assay: Nematicidal activity against juvenile stage of Pratylenchus penetrans assessed as inhibition of mobility incubated for 168 hr followed by compound wash out measured after 24 hr; format: functional
[5] = system: Heterodera schachtii; assay: Nematicidal activity against juvenile stage of Heterodera schachtii assessed as inhibition of mobility incubated for 168 hr followed by compound wash out measured after 24 hr; format: functional
[6] = system: Meloidogyne incognita; assay: Nematicidal activity against juvenile stage of Meloidogyne incognita (root-knot nematode) assessed as inhibition of mobility incubated for 168 hr followed by compound wash out measured after 24 hr; format: functional
[7] = Stability of the compound assessed as conversion of N-oxide to free base at 5 mg/mL after 24 to 168 hr by thin layer chromatographic analysis under UV light and cold temperature; format: physicochemical
[8] = system: Meloidogyne incognita; assay: Ovicidal activity against Meloidogyne incognita (root-knot nematode) assessed as egg hatching at 1 mg/mL after 336 hr (reference value: 54%); format: functional
[9] = system: Meloidogyne incognita; assay: Ovicidal activity against Meloidogyne incognita (root-knot nematode) assessed as egg hatching at 1 mg/mL after 24 hr (reference value: 3%); format: functional
[10] = system: Meloidogyne incognita; assay: Repellent activity against juvenile stage of Meloidogyne incognita (root-knot nematode) at 0.1 mg/mL after 40 hr by stereomicroscopic analysis (reference value: 51%); format: functional
[11] = system: Meloidogyne incognita; assay: Repellent activity against juvenile stage of Meloidogyne incognita (root-knot nematode) at 1 mg/mL after 40 hr by stereomicroscopic analysis (reference value: 51%); format: functional
[12] = system: Meloidogyne incognita; assay: Repellent activity against juvenile stage of Meloidogyne incognita (root-knot nematode) at 0.1 mg/mL after 20 hr by stereomicroscopic analysis (reference value: 50%); format: functional
[13] = system: Meloidogyne incognita; assay: Repellent activity against juvenile stage of Meloidogyne incognita (root-knot nematode) at 1 mg/mL after 20 hr by stereomicroscopic analysis (reference value: 50%); format: functional
[14] = system: Rhabditis sp.; assay: Repellent activity against juvenile stage of Rhabditis sp. at 0.1 mg/mL after 40 hr by stereomicroscopic analysis (reference value: 50%); format: functional
[15] = system: Rhabditis sp.; assay: Repellent activity against juvenile stage of Rhabditis sp. at 1 mg/mL after 40 hr by stereomicroscopic analysis (reference value: 50%); format: functional
[16] = Stability of the compound assessed as apperance of pyrroles at 5 mg/mL after 24 to 168 hr by thin layer chromatographic analysis under hot temperature; format: physicochemical
[17] = Stability of the compound assessed as apperance of pyrroles at 5 mg/mL after 24 to 168 hr by thin layer chromatographic analysis under UV light and cold temperature; format: physicochemical
[18] = Stability of the compound assessed as apperance of pyrroles at 5 mg/mL after 24 to 168 hr by thin layer chromatographic analysis under UV light and hot temperature; format: physicochemical
[19] = Stability of the compound assessed as apperance of new pyrrolizidine alkaloids at 5 mg/mL after 24 to 168 hr by thin layer chromatographic analysis under cold temperature; format: physicochemical
[20] = Stability of the compound assessed as apperance of new pyrrolizidine alkaloids at 5 mg/mL after 24 to 168 hr by thin layer chromatographic analysis under hot temperature; format: physicochemical
[21] = Stability of the compound assessed as apperance of new pyrrolizidine alkaloids at 5 mg/mL after 24 to 168 hr by thin layer chromatographic analysis under UV light and cold temperature; format: physicochemical
[22] = Stability of the compound assessed as apperance of new pyrrolizidine alkaloids at 5 mg/mL after 24 to 168 hr by thin layer chromatographic analysis under UV light and hot temperature; format: physicochemical
[23] = Stability of the compound assessed as conversion of N-oxide to free base at 5 mg/mL after 24 to 168 hr by thin layer chromatographic analysis under cold temperature; format: physicochemical
[24] = Stability of the compound assessed as conversion of N-oxide to free base at 5 mg/mL after 24 to 168 hr by thin layer chromatographic analysis under hot temperature; format: physicochemical
[25] = Stability of the compound assessed as conversion of N-oxide to free base at 5 mg/mL after 24 to 168 hr by thin layer chromatographic analysis under UV light and hot temperature; format: physicochemical
[26] = Stability of the compound assessed as apperance of pyrroles at 5 mg/mL after 24 to 168 hr by thin layer chromatographic analysis under cold temperature; format: physicochemical
[27] = system: Rhabditis sp.; assay: Nematicidal activity against juvenile stage of Rhabditis sp. assessed as inhibition of mobility after 168 hr; format: functional
[28] = system: Phasmarhabditis hermaphrodita; assay: Nematicidal activity against juvenile stage of Phasmarhabditis hermaphrodita of assessed as inhibition of mobility after 168 hr; format: functional; settings: Pellioditis hermaphrodita
[29] = system: Pratylenchus penetrans; assay: Nematicidal activity against juvenile stage of Pratylenchus penetrans assessed as inhibition of mobility after 168 hr; format: functional
[30] = system: Meloidogyne incognita; assay: Nematicidal activity against juvenile stage of Meloidogyne incognita (root-knot nematode) assessed as inhibition of mobility after 168 hr; format: functional
[31] = system: Heterodera schachtii; assay: Nematicidal activity against juvenile stage of Heterodera schachtii assessed as inhibition of mobility after 168 hr; format: functional
[32] = system: Phasmarhabditis hermaphrodita; assay: Nematicidal activity against juvenile stage of Phasmarhabditis hermaphrodita of assessed as inhibition of mobility after 20 hr; format: functional, organism-based
[33] = system: Rhabditis sp.; assay: Nematicidal activity against juvenile stage of Rhabditis sp. assessed as inhibition of mobility after 20 hr; format: functional, organism-based
[34] = system: Pratylenchus penetrans; assay: Nematicidal activity against juvenile stage of Pratylenchus penetrans assessed as inhibition of mobility after 20 hr; format: functional
[35] = system: Meloidogyne incognita; assay: Nematicidal activity against juvenile stage of Meloidogyne incognita (root-knot nematode) assessed as inhibition of mobility after 20 hr; format: functional
[36] = system: Heterodera schachtii; assay: Nematicidal activity against juvenile stage of Heterodera schachtii assessed as inhibition of mobility after 20 hr; format: functional

SMILES: C[C@H]1C(=O)O[C@@H]2CC[N+]3([O-])CC=C(COC(=O)[C@](C)(O)[C@]1(C)O)[C@H]23 (stereo partly specified) [MONOCROTALINE N-OXIDE]
- Repellency [1]: 89%
- Repellency [2]: 95%
- MIC50 [3]: 17.5 mg/mL (≈ 51.3 mM)
- MIC50 [4]: inactive
- MIC50 [5]: 37.1 mg/mL (≈ 109 mM)
- MIC50 [6]: inactive
- Stability [7]: Stable
- Activity [8]: 16%
- Activity [9]: 7%
- Repellency [10]: 51%
- Repellency [11]: 56%
- Repellency [12]: 52%
- Repellency [13]: 54%
- Repellency [14]: 90%
- Repellency [15]: 100%
- Stability [16]: Stable
- Stability [17]: Stable
- Stability [18]: Stable
- Stability [19]: Stable
- Stability [20]: Stable
- Stability [21]: Stable
- Stability [22]: Stable
- Stability [23]: Stable
- Stability [24]: Stable
- Stability [25]: Stable
- Stability [26]: Stable
- MIC50 [27]: 21.2 mg/mL (≈ 62.1 mM)
- MIC50 [28]: 13.7 mg/mL (≈ 40.1 mM)
- MIC50 [29]: inactive
- MIC50 [30]: inactive
- MIC50 [31]: 0.7 mg/mL (≈ 2.05 mM)
- MIC50 [32]: inactive
- MIC50 [33]: inactive
- MIC50 [34]: inactive
- MIC50 [35]: inactive
- MIC50 [36]: inactive
